Measurements reported in patent publication US20170071976A1, “PHARMACEUTICAL SOLUTION HAVING ANTI-TUMOR EFFECT-ENHANCING AND TOXICITY-REDUCING EFFECT, AND PHARMACEUTICAL COMPOSITION COMPRISING SAME” (priority 2014, published 2017).
Like-named read-outs stand apart in the source and are kept apart here. Marks after values point to notes of the source that are not given here.

How the values were obtained:
[1] = tested on: superficial bladder cancer (SBC); conditions: mitomycin dissolved in only a sodium chloride solution, intrabladder perfusion and lavage; cited from earlier work
[2] = tested on: human pancreatic cancer PANC-1 cells inoculated into the peritoneal cavity; assay: Survival of nude mice bearing PANC-1 cells, 42° C. intraperitoneal retention lavage with HP-β-CD or sodium chloride deuterium oxide solution and gemcitabine; assay type: in vivo; conditions: 42° C. NS 10 ml/kg + gemcitabine 20 mg/kg, i.p. lavage x 5
Experimental: Effect of 42° C. hyperthermicintraperitoneal retention lavage with hydroxypropyl-β-cyclodextrin (HP-β-CD) deuterium oxide solution in combination with gemcitabine (GEM) on the survival of nude mice bearing human pancreatic cancer PANC-1 cell.
Animal: 4 to 5 week-aged male nude mice, provided by Shanghai SIPPR-BK Laboratory Animal Co. Ltd.
Cell lines: human pancreatic cancer PANC-1 cell line was provided by NANJING KEYGEN BIOTECH.
Modeling: 0.2 ml suspension of pancreatic cancer PANC-1 cells containing 1×10^7 cells/ml (2×10^6 cells in total) was inoculated into the peritoneal cavity of the nude mice.
Grouping and dosing: the mouse model was established 7 to 8 days after inoculation into the nude mice, and the mice were randomized with 18 animals/group.
Gemcitabine was separately dissolved in the HP-β-CD deuterium oxide solution at 42° C., and in the sodium chloride deuterium oxide solution at 42° C., for intraperitoneal lavage of tumor-bearing mice.
Blank control group (42° C. sodium chloride physiological solution, 10 ml/kg); 2). Normal chemo group (42° C. sodium chloride physiological solution, 10 ml/kg+gemcitabine 20 mg/kg); 3). Low-dose sodium chloride deuterium oxide solution+gemcitabine group (42° C. sodium chloride deuterium oxide solution, 5 ml/kg+gemcitabine 20 mg/kg); 4). […]

[3] = tested on: xenograft tumors from human lung cancer A549 cells; assay: A549 xenograft in nude mice, intravenous deuterium oxide in combination with gemcitabine; conditions: for Inhibition (%): tumor weight
Experimental: (§1) Animal: 6 to 7 week-aged female BALB/c nude mice, each weighing 18 to 20 g, provided by Shanghai SLAC Laboratory Animal Co. Ltd.
(§2) Test drugs: gemcitabine (GEM) and the sodium chloride deuterium oxide solution prepared in Example 1.
(§3) Tumor cells were resuscitated and inoculated, and sterile sodium chloride physiological solution was added thereto to make a cell suspension which was subcutaneously inoculated into the upper right axillary fossa of animals. 5×10^6 tumor cells were inoculated into each animal.
(§4) The diameter of xenograft tumors in the nude mice was measured with a vernier caliper, and 10 days after inoculation, when tumors grew to 100 to 110 cm^3, the animals were randomized with 8 mice per group. Meanwhile drugs were administered by injection into tail vein, once every three days, for 21 successive days. By measuring the tumor diameter, the anti-tumor efficacy of test samples was dynamically observed. Meanwhile the body weight of animals was also recorded to observe the toxicity of the test samples. 21 days after administration, the nude mice were sacrificed, and tumors were harvested by surgery, weighed and photographed.
(§5) 6) Test group 2: gemcitabine (10 mg/kg) diluted in the sodium chloride deuterium oxide solution (10 ml/kg). 7) Test group 3: gemcitabine (10 ml/kg) diluted in the sodium chloride deuterium oxide solution (20 ml/kg).

[4] = tested on: xenograft tumors from human breast cancer MCF-7 cells; assay: MCF-7 xenograft in nude mice, intravenous deuterium oxide in combination with gemcitabine; assay type: in vivo, BALB/c nude mice; conditions: for Body weight (g) End, given as change / Body weight (g) Initial / Bone marrow DNA content (OD): mouse, in vivo; for Inhibition (%): tumor weight
Experimental: Ltd. Cell lines: human breast cancer MCF-7 cells were provided by NANJING […] BIOTECH. CO., LTD. […] Bone marrow nucleated cells were isolated by a routine method, DNA was extracted from the cells, the OD value was measured in a UV-260 spectrometer as a representative of the DNA content, and inhibition of DNA synthesis by the test samples was observed. The test used 7 groups in total, with 8 animals per group. […] Statistics: the same as Example 21.

[5] = tested on: human lung cancer A549 cells; assay: Cell cycle by PI single staining (flow cytometry); assay type: cell-based; conditions: GM 250 nM in NS, 72 hours
Experimental: Effect of deuterium oxide on the cell cycle of human lung cancer A549 cells and human colon cancer HCT-116 cells Human lung cancer A549 cells and human colon cancer HCT-116 cells were provided by NANJING […] BIOTECH. CO., LTD., and cultured in an incubator at 37° C., 5% CO2 and saturated humidity. A KGA511 Cell cycle assay kit was provided by NANJING […] BIOTECH. CO., LTD. The flow cytometer was FACS Calibur provided by Becton-Dickinson, US. […] The cell suspension was centrifuged at 800 to 1,000 rpm for 5 min, and the supernatant was discarded; 1.4. A complete culture medium was added to the cell pellet which was well mixed by gentle pipetting, the cell suspension was transferred to a culture flask, and the cells were cultured by supplementing culture medium. […] When all the cells became round, an equal volume of culture medium containing serum was added to cease the digestion; 2.4. The cells were blown by pipetting to suspend, then drawn into a 15 ml centrifugal tube, and centrifuged at 1000 rpm for 5 min; 2.5. […] 1. Cells growing in the exponential phase were digested and inoculated to a 6-well plate; on the next day, after the cells attached to the wall, cell culture media containing corresponding test drugs were added according to different groups, and a negative control group was also set; 2. […] The cells were washed with PBS once (centrifuged at 2,000 rpm for 5 min), and 5×10^5 cells were collected; 4. […] In a detection apparatus, red fluorescence with an excitation wavelength of 488 nm was recorded.

[6] = tested on: human lung cancer A549 cells; assay: Cell invasion assayed by Transwell; assay type: cell-based; conditions: invaded A549 cells, control 178.3 ± 13.8
Experimental: Cell lines: human colon cancer HCT-116 cells and human lung cancer A549 cells were provided by NANJING […] BIOTECH. CO., LTD. […] The cell suspension was centrifuged at 800 to 1,000 rpm for 5 min, and the supernatant was discarded; 1.4. A complete culture medium was added to the cell pellet which was well mixed by gentle pipetting, the cell suspension was transferred to a culture flask, and the cells were cultured by supplementing culture medium. 1. […] After incubation of cells with the test drugs for 24 hours, serum was removed, and the cells were incubated under starvation with an incomplete culture medium for 24 hours; 3. Matrigel was placed at 4° C. in advance to thaw overnight; 4. Thawed Matrigel was 1:1 diluted with the incomplete culture medium, 30 μl diluted Matrigel was added to the upper compartment of Transwell and incubated at 37° C. for 120 min to gel the Matrigel; 5. Cells from different groups were digested, counted, and then adjusted to a density of 1×10^5 cells/ml with the incomplete culture medium, 100 μl cell suspension was added to the upper compartment (small compartment) of Transwell, and 500 μl medium containing 20% FBS was added to the lower compartment of Transwell; 6. A 24-well cell culture plate was placed in an incubator at 37° C. and 5% CO2 to culture the cells for 24 hours; 7. […] The assay was repeated one more time.

[7] = tested on: xenograft tumors from human lung cancer A549 cells; conditions: mouse, in vivo
Experimental: as §1, §2, §3, §4, §5

[8] = GEM(H) 20 mg/kg × 11, tail vein, 20 mg/kg
[9] = GEM(H) 20 mg/kg × 11, tail vein, listed as gemcitabine, 20 mg/kg
[10] = GEM(L) 10 mg/kg × 11, tail vein, 10 mg/kg
[11] = GEM(L) 10 mg/kg × 11, tail vein, listed as gemcitabine, 10 mg/kg
[12] = GEM(H) 20 mg/kg × 11, tail vein

CO[C@@]12[C@H](COC(N)=O)C3=C(C(=O)C(C)=C(N)C3=O)N1C[C@@H]1N[C@@H]12 [mitomycin]
tumor recurrence rate [1]: 78%

Nc1ccn([C@@H]2O[C@H](CO)[C@@H](O)C2(F)F)c(=O)n1 [Gemcitabine, gemcitabine]
T/C(%) [2]: 150.8%
MST ([2]; control 11.8 ± 2.2): 17.8 ± 1.8 days
Tumor weight [3, 8]: 1.04 ± 0.13 g
Tumor weight [3, 9]: 1.04 ± 0.13 g
Tumor weight [3, 10]: 2.23 ± 0.2 g
Tumor weight [3, 11]: 2.23 ± 0.2 g
Inhibition (%) [3, 8]: 64.54* %
Inhibition (%) [3, 9]: 64.54%
Inhibition (%) [3, 10]: 23.64%
Inhibition (%) [3, 11]: 23.6%
tumor volume ([4]; 21 days after administration, gemcitabine 10 mg/kg alone): 2.757±0.342 cm^3
Tumor weight [4, 12]: 1.57 ± 0.21 g
Tumor weight ([4]; GEM(L) 10 mg/kg × 11, tail vein): 2.48 ± 0.41 g
T/C (relative tumor growth ratio) ([4]; gemcitabine 10 mg/kg alone, vs negative control): 60.39%
Body weight (g) End, given as change ([4]; 10 mg/kg): +2.9 g
Body weight (g) Initial ([4]; 10 mg/kg): 18.0 g
Bone marrow DNA content (OD) ([4]; 10 mg/kg): 0.908 ± 0.2543 OD
Body weight (g) End, given as change ([4]; 20 mg/kg): +0.9 g
Body weight (g) Initial ([4]; 20 mg/kg): 18.1 g
Bone marrow DNA content (OD) ([4]; 20 mg/kg): 0.823 ± 0.1416 OD
Inhibition (%) [4, 12]: 61.42%*
Inhibition (%) [4, 10]: 39.06%
Inhibition (%) [4, 11]: 39.18%
G1 Phase [5]: 73.73 ± 3.73%
G2 Phase [5]: 10.71 ± 2.39%
S Phase [5]: 15.55 ± 5.51%
Number of cells ([6]; GEM 1.95 nM): 160.0 ± 6.6
Number of cells ([6]; GEM 3.9 nM): 112.7 ± 3.5
Number of cells ([6]; GEM 7.8 nM): 59.0 ± 2.0
Number of cells ([6]; GEM 15.6 nM): 51.7 ± 3.1
Number of cells ([6]; GEM 31.2 nM): 37.3 ± 2.3
Number of cells ([6]; GEM 62.5 nM): 22.3 ± 0.6
Number of cells ([6]; GEM 125 nM): 16.0 ± 1.0
Number of cells ([6]; GEM 250 nM): 9.7 ± 2.1
Body weight (g) End, given as change ([7]; 10 mg/kg): +0.4 g
Body weight (g) Initial ([7]; 10 mg/kg): 18.0 g
Body weight (g) End, given as change ([7]; 20 mg/kg): +0.5 g
Body weight (g) Initial ([7]; 20 mg/kg): 18.4 g
